Tested on: yeast genes (expressed mRNA)
Assay: DNA chip measurement of expressed mRNA of yeast genes after culture with a toxic chemical substance
Assay type: cell-based, Saccharomyces cerevisiae S288C
Protocol: Yeast (Saccharomyces cerevisiae S288C (a SUC2mal mel gap2 CUP1)) were cultured at 25° C. on YPD medium (yeast extract 1%, polypeptone 2%, glucose 2%). One of toxic chemical substances was added to the cell at logarithmic growth phase, and the cell was further cultured for two hours. Cell was cultured without any chemical substance in the same condition, and was used as a control. Concentrations of the chemical substances were defined to inhibit the growth of the yeast but not lead to death.
After the completion of cultivation, the culture was centrifuged to collect the cells. To the cells, sodium acetate buffer (50 mM sodium acetate, 10 mM EDTA, 1% SDS) was added, and the mixture was shaken at 65° C. for five minutes, followed by returning to room temperature, and obtaining the supernatant, which procedure was repeated two times. To the supernatant, ½ amount of a solution of phenol/chloroform (1:1) was added, and the mixture was centrifuged to give a supernatant, an equal amount of chloroform was added, and the mixture was centrifuged to give a supernatant. To the supernatant, an equal amount of isopropanol containing 0.3 M sodium acetate was added, and the mixture was allowed to stand at room temperature for 30 minutes, after which the mixture was centrifuged to give sediment of the whole RNAs. Seventy % ethanol was added to the sediment, and the mixture was again centrifuged to give sediment, which was then dried and dissolved in water. mRNA was isolated from the whole RNAs as followings. In view of the fact that a poly A chain is attached to the 3′ terminus of mRNA, a polynucleotide having a poly T structure which was immobilized on the surface of latex beads was used to trap the mRNA, and then the mRNA was washed and eluted with spine column (Oligotex-dT30<Super>mRNA Purification Kit, Takara). Reverse transcription of the mRNA was conducted with a reverse transcriptase (Super Script II Reverse Transcriptase; catalogue No. 18064-014, GibcoBRL) using fluorescence-labeled nucleotides to give cDNAs that were introduced with Cy3-dUTP or Cy5-dUTP during the reverse transcription.
The labeled cDNAs were dissolved in TE buffer (10 mM Tris-HCl/1 mM EDTA, pH 8.0), and the solution was dropped on the DNA chip containing the whole genes of yeast (DNA Chip Research Inc. Japan) so that the cDNAs were hybridized on the DNA chip at 65° C. for over 12 hours. The fluoresces intensity of the DNA chip was read with a scanner, and the ratio relative to the fluorescence intensity resulting from the absence of chemical substance was estimated as the following, which is shown in Tables 1 to 9.
In the Tables, “Intensity” indicated in the rightmost column is a value of the level of expressed mRNA of each gene in control cells as divided by the average level of the expressions of the whole genes. A gene of which mRNA level is lower in control, and is higher in cases of addition of chemical substance, is especially useful in the detection of toxic substances.
Here, when a ratio of an amount of mRNA expressed in the presence of the chemical substance to an amount of mRNA expressed in the absence of the chemical substance is two or more, then it is considered significant.

N#Cc1c(Cl)c(Cl)c(Cl)c(C#N)c1Cl [(9), 2,4,5,6-Tetrachloro-1,3-benzenedicarbonitrile]
The level of expressed mRNA in the presence of chemical substance/The level of expressed mRNA in the absence of chemical substance (yeast gene YFL010C, cultured two hours with substance): 3.1
The level of expressed mRNA in the presence of chemical substance/The level of expressed mRNA in the absence of chemical substance (yeast gene YFL014W, DNA repair protein genes, cultured two hours with substance): 13.1
The level of expressed mRNA in the presence of chemical substance/The level of expressed mRNA in the absence of chemical substance (yeast gene YFL024C, cultured two hours with substance): 0.5
The level of expressed mRNA in the presence of chemical substance/The level of expressed mRNA in the absence of chemical substance (yeast gene YFL030W, metabolism protein genes): 24.5
The level of expressed mRNA in the presence of chemical substance/The level of expressed mRNA in the absence of chemical substance (yeast gene YFL032W, cultured two hours with substance): 0.5
The level of expressed mRNA in the presence of chemical substance/The level of expressed mRNA in the absence of chemical substance (yeast gene YFL056C): 162.3
The level of expressed mRNA in the presence of chemical substance/The level of expressed mRNA in the absence of chemical substance (yeast gene YFL056C, cultured for two hours with substance): 162.3
The level of expressed mRNA in the presence of chemical substance/The level of expressed mRNA in the absence of chemical substance (yeast gene YFL057C): 51.8
The level of expressed mRNA in the presence of chemical substance/The level of expressed mRNA in the absence of chemical substance (yeast gene YFL057C, cultured for two hours with substance): 51.8
The level of expressed mRNA in the presence of chemical substance/The level of expressed mRNA in the absence of chemical substance (yeast gene YFR020W, cultured two hours with substance): 3.7
The level of expressed mRNA in the presence of chemical substance/The level of expressed mRNA in the absence of chemical substance (yeast gene YFR030W): 24.1
The level of expressed mRNA in the presence of chemical substance/The level of expressed mRNA in the absence of chemical substance (yeast gene YFR042W, cultured two hours with substance): 2.8
The level of expressed mRNA in the presence of chemical substance/The level of expressed mRNA in the absence of chemical substance (yeast gene YGL037C, cultured two hours with substance): 2.1
The level of expressed mRNA in the presence of chemical substance/The level of expressed mRNA in the absence of chemical substance (yeast gene YGL047W, cultured two hours with substance): 4.5
The level of expressed mRNA in the presence of chemical substance/The level of expressed mRNA in the absence of chemical substance (yeast gene YGL053W, cultured two hours with substance): 3.3
The level of expressed mRNA in the presence of chemical substance/The level of expressed mRNA in the absence of chemical substance (yeast gene YGL091C, DNA repair protein genes, cultured two hours with substance): 10.8
The level of expressed mRNA in the presence of chemical substance/The level of expressed mRNA in the absence of chemical substance (yeast gene YGL098W, cultured two hours with substance): 1.2
The level of expressed mRNA in the presence of chemical substance/The level of expressed mRNA in the absence of chemical substance (yeast gene YGL104C): 4.6
The level of expressed mRNA in the presence of chemical substance/The level of expressed mRNA in the absence of chemical substance (yeast gene YGL121C, cultured two hours with substance): 7.0
The level of expressed mRNA in the presence of chemical substance/The level of expressed mRNA in the absence of chemical substance (yeast gene YGL136C, cultured two hours with substance): 1.3
The level of expressed mRNA in the presence of chemical substance/The level of expressed mRNA in the absence of chemical substance (yeast gene YGL227W, cultured two hours with substance): 2.4
The level of expressed mRNA in the presence of chemical substance/The level of expressed mRNA in the absence of chemical substance (yeast gene YGR010W, cultured two hours with substance): 13.6
The level of expressed mRNA in the presence of chemical substance/The level of expressed mRNA in the absence of chemical substance (yeast gene YGR043C): 10.9
The level of expressed mRNA in the presence of chemical substance/The level of expressed mRNA in the absence of chemical substance (yeast gene YGR043C, cultured for two hours with substance): 10.9
The level of expressed mRNA in the presence of chemical substance/The level of expressed mRNA in the absence of chemical substance (yeast gene YGR101W, cultured two hours with substance): 4.0
The level of expressed mRNA in the presence of chemical substance/The level of expressed mRNA in the absence of chemical substance (yeast gene YGR110W, cultured two hours with substance): 6.4
The level of expressed mRNA in the presence of chemical substance/The level of expressed mRNA in the absence of chemical substance (yeast gene YGR130C, cultured two hours with substance): 2.0
The level of expressed mRNA in the presence of chemical substance/The level of expressed mRNA in the absence of chemical substance (yeast gene YGR134W, cultured two hours with substance): 2.4
The level of expressed mRNA in the presence of chemical substance/The level of expressed mRNA in the absence of chemical substance (yeast gene YGR142W, cultured two hours with substance): 36.8
The level of expressed mRNA in the presence of chemical substance/The level of expressed mRNA in the absence of chemical substance (yeast gene YGR146C, cultured two hours with substance): 0.8
The level of expressed mRNA in the presence of chemical substance/The level of expressed mRNA in the absence of chemical substance (yeast gene YGR154C, cultured two hours with substance): 25.2
The level of expressed mRNA in the presence of chemical substance/The level of expressed mRNA in the absence of chemical substance (yeast gene YGR197C (transport facilitation protein gene)): 16.7
The level of expressed mRNA in the presence of chemical substance/The level of expressed mRNA in the absence of chemical substance (yeast gene YGR284C, cultured two hours with substance): 4.3
The level of expressed mRNA in the presence of chemical substance/The level of expressed mRNA in the absence of chemical substance (yeast gene YHR016C, cultured two hours with substance): 2.8
The level of expressed mRNA in the presence of chemical substance/The level of expressed mRNA in the absence of chemical substance (yeast gene YHR029C, cultured two hours with substance): 13.6
The level of expressed mRNA in the presence of chemical substance/The level of expressed mRNA in the absence of chemical substance (yeast gene YHR138C, cultured two hours with substance): 5.3
The level of expressed mRNA in the presence of chemical substance/The level of expressed mRNA in the absence of chemical substance (yeast gene YHR199C, cultured two hours with substance): 8.6
The level of expressed mRNA in the presence of chemical substance/The level of expressed mRNA in the absence of chemical substance (yeast gene YHR209W, cultured two hours with substance): 2.9
The level of expressed mRNA in the presence of chemical substance/The level of expressed mRNA in the absence of chemical substance (yeast gene YIL023C, cultured two hours with substance): 3.5
The level of expressed mRNA in the presence of chemical substance/The level of expressed mRNA in the absence of chemical substance (yeast gene YIL024C, cultured two hours with substance): 2.2
The level of expressed mRNA in the presence of chemical substance/The level of expressed mRNA in the absence of chemical substance (yeast gene YIL041W, cultured two hours with substance): 1.8
The level of expressed mRNA in the presence of chemical substance/The level of expressed mRNA in the absence of chemical substance (yeast gene YIL087C, cultured two hours with substance): 2.4
The level of expressed mRNA in the presence of chemical substance/The level of expressed mRNA in the absence of chemical substance (yeast gene YIL097W, cultured two hours with substance): 4.9
The level of expressed mRNA in the presence of chemical substance/The level of expressed mRNA in the absence of chemical substance (yeast gene YIL117C, cultured two hours with substance): 2.3
The level of expressed mRNA in the presence of chemical substance/The level of expressed mRNA in the absence of chemical substance (yeast gene YIL143C, DNA repair protein genes, cultured two hours with substance): 7.1
The level of expressed mRNA in the presence of chemical substance/The level of expressed mRNA in the absence of chemical substance (yeast gene YIL153W, DNA repair protein genes, cultured two hours with substance): 4.3
The level of expressed mRNA in the presence of chemical substance/The level of expressed mRNA in the absence of chemical substance (yeast gene YJL020C, cultured two hours with substance): 1.3
The level of expressed mRNA in the presence of chemical substance/The level of expressed mRNA in the absence of chemical substance (yeast gene YJL057C, cultured two hours with substance): 7.3
The level of expressed mRNA in the presence of chemical substance/The level of expressed mRNA in the absence of chemical substance (yeast gene YJL066C, cultured two hours with substance): 2.0
The level of expressed mRNA in the presence of chemical substance/The level of expressed mRNA in the absence of chemical substance (yeast gene YJL082W, cultured two hours with substance): 1.4
